In US8440674B2, “Substituted pyrimidine compounds as RAF inhibitors and methods of use” (Amgen Inc., priority 2005, dated 2013):
Where two headings read alike, the source gives them in different places.

Legend:
recombinant HuBraf V600E = recombinant HuBraf V600E (Homo sapiens, UniProt P15056, V600E); assay: B-raf Homogenous Time Resolved Fluorescent (HTRF) kinase assay; format: biochemical; conditions: substrate MEK1, 10 uM ATP; threshold lists; read-out: IC50 for the inhibition of B-raf as measured by the HTRF assay
Experimental: A Homogeneous Time Resolved Fluorescence (HTRF) kinase assay was established to assay the ability of compounds to inhibit human mutant Braf kinase activity on the substrate MEK1. […] The final concentration of the kinase reaction buffer is 50 mM Tris-HCL pH 7.5, 10 mM MgCl2, 0.5% glucose, 0.5 mM DTT, 0.01% BSA.
The detection reaction proceeds for one hour and is read on a RubyStar (BMG Labtech) counter. IC50s for the test compounds are generated using Excel-XLfit software.

[1] = tested on: A375 cells, a human melanoma cell line having the V600E mutant Braf; assay: B-Raf cell-based assay (ratio of phospho-ERK1/2 to total ERK1/2); conditions: A-375, 1 h, P-ERK/total ERK, 60 minute incubation, read-out: IC50 for the inhibition of B-raf as measured by the cell-based assay
Experimental: A cell-based assay was optimized to assay the ability of compounds to inhibit Braf activity in a whole cell context. […] The cell-based assay quantifies the ratio of phospho-ERK1/2 to total ERK1/2 and can thereby assay the cellular inhibition of Braf kinase activity.
A375 cells are plated into 96 well plates and grown to confluence. The cells are then changed into starve media (DMEM/0.1% BSA) for 60 minutes. Compounds in DMSO dose curves are then diluted in starve media and added to cells. […] After a 60 minute incubation the cells are fixed for 20 minutes at room temperature in 4% formaldehyde with 0.1%Triton X-100, protease and phosphatase inhibitors in PBS. The cells are washed four times in PBS then blocked for 60 minutes using a one to one mix of Odyssey blocking buffer (Li-Cor Biosciences, Inc) and PBS. Primary antibodies (rabbit anti-phospho p42/p44 MAPK (P-ERK1/2) from Cell Signaling Technology and mouse anti-ERK2 from Santa Cruz Biotechnology) are diluted in blocking buffer, added to the cells and incubated overnight at 4° C. The cells are then washed four times in PBS/0.1% Tween-20. Secondary antibodies (anti-mouse IRDye 800CW from Rockland, Inc and anti-rabbit AlexaFlour680 from Molecular Probes) are diluted in blocking buffer/0.5% Tween and incubated on cells for 60 minutes. After 4 washes in PBS/0.1% Tween-20 the microplate is scanned on an Odyssey Infrared Imager (Li-Cor Bioscience) which can read the signal given by the two secondary antibodies on their respective channels. The ratio of P-ERK/total ERK is determined and IC50s generated using Excel-XLfit software.

recombinant HuBraf V600E, sequence (P15056 whole entry V600E): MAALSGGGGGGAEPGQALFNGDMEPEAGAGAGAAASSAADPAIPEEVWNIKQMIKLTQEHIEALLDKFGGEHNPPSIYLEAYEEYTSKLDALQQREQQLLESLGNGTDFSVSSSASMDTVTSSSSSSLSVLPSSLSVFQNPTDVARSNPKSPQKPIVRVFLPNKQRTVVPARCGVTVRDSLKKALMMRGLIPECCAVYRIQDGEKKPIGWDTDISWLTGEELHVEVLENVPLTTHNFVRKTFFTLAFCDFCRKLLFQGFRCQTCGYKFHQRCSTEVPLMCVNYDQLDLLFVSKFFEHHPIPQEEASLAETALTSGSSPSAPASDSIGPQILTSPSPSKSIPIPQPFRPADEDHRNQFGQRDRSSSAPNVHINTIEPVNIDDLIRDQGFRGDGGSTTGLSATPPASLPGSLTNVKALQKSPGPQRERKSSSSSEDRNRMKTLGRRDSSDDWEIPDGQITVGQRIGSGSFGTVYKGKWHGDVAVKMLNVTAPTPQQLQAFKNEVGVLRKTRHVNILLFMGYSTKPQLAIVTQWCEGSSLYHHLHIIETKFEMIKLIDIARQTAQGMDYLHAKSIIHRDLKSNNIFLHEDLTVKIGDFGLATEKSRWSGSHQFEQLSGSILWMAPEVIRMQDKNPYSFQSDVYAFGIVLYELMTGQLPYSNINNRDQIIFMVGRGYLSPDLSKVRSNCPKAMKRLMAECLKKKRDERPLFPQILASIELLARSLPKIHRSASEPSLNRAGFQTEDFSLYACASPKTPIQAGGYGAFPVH

IC50 (recombinant HuBraf V600E) [nM]	IC50 ([1]; threshold list) [nM]	IC50 ([1]; threshold lists) [nM]	SMILES
≤ 250	≤ 500		CNc1ncc2cc(-c3c(C)ccc4c(Nc5cccc(C(C)(C)C)c5)nccc34)ccc2n1 [Example 28, 6-(1-((3-(1,1-dimethylethyl)phenyl)amino)-6-methyl-5-isoquinolinyl)-N-methyl-2-quinazolinamine]
≤ 250	≤ 500		CNc1ncc2cc(-c3c(C)ccc4c(Nc5cccc(Cl)c5)nccc34)ccc2n1 [Example 29, 6-(1-((3-chlorophenyl)amino)-6-methyl-5-isoquinolinyl)-N-methyl-2-quinazolinamine]
≤ 250	≤ 500		CNc1ncc2cc(-c3c(C)ccc4c(Nc5cccc(C#N)c5)nccc34)ccc2n1 [Example 30, 3-((6-methyl-5-(2-(methylamino)-6-quinazolinyl)-1-isoquinolinyl)amino)benzonitrile]
≤ 250	≤ 500		CNc1ncc2cc(-c3c(C)ccc4c(Nc5ccc(OC)c(C(F)(F)F)c5)nccc34)ccc2n1 [Example 35, N-methyl-6-(6-methyl-1-((4-(methyloxy)-3-(trifluoromethyl)phenyl)amino)-5-isoquinolinyl)-2-quinazolinamine]
≤ 250	≤ 500		CNc1ncc2cc(-c3c(C)ccc4c(Nc5ccc6c(c5)CCC6)nccc34)ccc2n1 [Example 38, 6-(1-(2,3-dihydro-1H-inden-5-ylamino)-6-methyl-5-isoquinolinyl)-N-methyl-2-quinazolinamine]
≤ 250	≤ 500		CNc1ncc2cc(-c3c(C)ccc4c(Nc5ccc6sc(C)nc6c5)nccc34)ccc2n1 [Example 39, N-methyl-6-(6-methyl-1-((2-methyl-1,3-benzothiazol-5-yl)amino)-5-isoquinolinyl)-2-quinazolinamine]
≤ 250	≤ 500		CNc1ncc2cc(-c3c(C)ccc4c(Nc5cncc(C(F)(F)F)c5)nccc34)ccc2n1 [Example 41, N-methyl-6-(6-methyl-1-((5-(trifluoromethyl)-3-pyridinyl)amino)-5-isoquinolinyl)-2-quinazolinamine]
≤ 250	≤ 500		CNc1ncc2cc(-c3c(C)ccc4c(Nc5cccc(OC(F)(F)F)c5)ncnc34)ccc2n1 [Example 50, N^2,7′-dimethyl-N^4′-(3-((trifluoromethyl)oxy)phenyl)-6,8′-biquinazoline-2,4′-diamine]
≤ 250	≤ 500		CNc1ncc2cc(-c3c(C)ccc4c(Nc5cc(C(C)(C)C)nn5C)ncnc34)ccc2n1 [Example 53, N^4′-(3-(1,1-dimethylethyl)-1-methyl-1H-pyrazol-5-yl)-N^2,7′-dimethyl-6,8′-biquinazoline-2,4′-diamine]
≤ 250	≤ 500		CNc1ncc2cc(-c3c(C)ccc4c(Nc5ccc6c(c5)N(C(C)=O)CC6(C)C)ncnc34)ccc2n1 [Example 54, N^4′-(1-acetyl-3,3-dimethyl-2,3-dihydro-1H-indol-6-yl)-N^2,7′-dimethyl-6,8′-biquinazoline-2,4′-diamine]
≤ 250	≤ 500		CNc1ncc2cc(-c3c(C)ccc4c(Nc5ccc(Cl)c(C(F)(F)F)c5)ncnc34)ccc2n1 [Example 55, N^4′-(4-chloro-3-(trifluoromethyl)phenyl)-N^2,7′-dimethyl-6,8′-biquinazoline-2,4′-diamine]
≤ 250	≤ 500		CNc1ncc2cc(-c3c(C)ccc4c(Nc5cccc(OC(F)(F)F)c5)nn(C)c34)ccc2n1 [Example 65, 6-(1,6-dimethyl-3-((3-((trifluoromethyl)oxy)phenyl)amino)-1H-indazol-7-yl)-N-methyl-2-quinazolinamine]
≤ 250	≤ 500		CNc1cc(-c2cccnc2Nc2c(C)ccc3c(Nc4cccc(OC(F)(F)F)c4)nccc23)ncn1 [Example 68, 6-methyl-N^5-(3-(6-(methylamino)-4-pyrimidinyl)-2-pyridinyl)-N^1-(3-((trifluoromethyl)oxy)phenyl)-1,5-isoquinolinediamine]

Second part, the molecule before the results:

SMILES	IC50 (recombinant HuBraf V600E) [nM]	IC50 ([1]; threshold list) [nM]	IC50 ([1]; threshold lists) [nM]
CNc1ncc2cc(-c3c(C)ccc4c(Nc5cccc(OC(F)(F)F)c5)nccc34)ccc2n1 [Example 32, N-methyl-6-(6-methyl-1-((3-((trifluoromethyl)oxy)phenyl)amino)-5-isoquinolinyl)-2-quinazolinamine]	≤ 250	≤ 500	
CNc1ncc2cc(-c3c(C)ccc4c(Nc5ccc6c(c5)N(C(C)=O)CC6(C)C)nccc34)ccc2n1 [Example 33, 6-(1-((1-acetyl-3,3-dimethyl-2,3-dihydro-1H-indol-6-yl)amino)-6-methyl-5-isoquinolinyl)-N-methyl-2-quinazolinamine]	≤ 250	≤ 500	
CNc1ncc2cc(-c3c(C)ccc4c(Nc5cc(C(F)(F)F)ccn5)nccc34)ccc2n1 [Example 34, N-methyl-6-(6-methyl-1-((4-(trifluoromethyl)-2-pyridinyl)amino)-5-isoquinolinyl)-2-quinazolinamine]	≤ 250	≤ 500	
CNc1ncc2cc(-c3c(C)ccc4c(Nc5nnc(C6CC6)s5)nccc34)ccc2n1 [Example 36, 6-(1-((5-cyclopropyl-1,3,4-thiadiazol-2-yl)amino)-6-methyl-5-isoquinolinyl)-N-methyl-2-quinazolinamine]	≤ 250	≤ 500	
CNc1ncc2cc(-c3c(C)ccc4c(Nc5ccc6[nH]ncc6c5)nccc34)ccc2n1 [Example 37, 6-(1-(1H-indazol-5-ylamino)-6-methyl-5-isoquinolinyl)-N-methyl-2-quinazolinamine]	≤ 250	≤ 500	
CNc1ncc2cc(-c3c(C)ccc4c(Nc5ccc(F)c(OC(C)C)c5)nccc34)ccc2n1 [Example 40, 6-(1-((4-fluoro-3-((1-methylethyl)oxy)phenyl)amino)-6-methyl-5-isoquinolinyl)-N-methyl-2-quinazolinamine]	≤ 250	≤ 500	
CNc1ncc2cc(-c3c(C)ccc4c(Nc5cccc(C(F)(F)F)c5)ncnc34)ccc2n1 [Example 51, N^2,7′-dimethyl-N^4′-(3-(trifluoromethyl)phenyl)-6,8′-biquinazoline-2,4′-diamine]	≤ 250	≤ 500	
CNc1ncc2cc(-c3c(C)ccc4c(Nc5ccc(OC)c(C(F)(F)F)c5)ncnc34)ccc2n1 [Example 52, N^2,7′-dimethyl-N^4′-(4-(methyloxy)-3-(trifluoromethyl)phenyl)-6,8′-biquinazoline-2,4′-diamine]	≤ 250	≤ 500	
CNc1ncc2cc(-c3c(C)ccc4c(Nc5cncc(C(F)(F)F)c5)ncnc34)ccc2n1 [Example 56, N^2,7′-dimethyl-N^4′-(5-(trifluoromethyl)-3-pyridinyl)-6,8′-biquinazoline-2,4′-diamine]	≤ 250	≤ 500	
CNc1ncc2cc(-c3c(C)ccc4c(NC5CCC(C(C)(C)C)CC5)ncnc34)ccc2n1 (centres unmarked) [Example 57, N^4′-(4-(1,1-dimethylethyl)cyclohexyl)-N^2,7′-dimethyl-6,8′-biquinazoline-2,4′-diamine]	≤ 250	≤ 500	≤ 1000
CNc1ncc2cc(-c3c(C)ccc4c(Nc5ccc6sc(C)nc6c5)ncnc34)ccc2n1 [Example 58, N^2,7′-dimethyl-N^4′-(2-methyl-1,3-benzothiazol-5-yl)-6,8′-biquinazoline-2,4′-diamine]	≤ 250	≤ 500	≤ 1000
CNc1ncc2cc(-c3c(C)ccc4c(Nc5cccc(C(F)(F)F)c5)nn(C)c34)ccc2n1 [Example 63, 6-(1,6-dimethyl-3-((3-(trifluoromethyl)phenyl)amino)-1H-indazol-7-yl)-N-methyl-2-quinazolinamine]	≤ 250	≤ 500	
CNc1ncc2cc(-c3c(C)ccc4c(Nc5ccc(OC)c(C(F)(F)F)c5)nn(C)c34)ccc2n1 [Example 64, 6-(1,6-dimethyl-3-((4-(methyloxy)-3-(trifluoromethyl)phenyl)amino)-1H-indazol-7-yl)-N-methyl-2-quinazolinamine]	≤ 250	≤ 500	
CNc1cc(-c2cccnc2Nc2c(C)ccc3c(Nc4ccc(OC)c(C(F)(F)F)c4)nccc23)ncn1 [Example 70, N^1-(4-methoxy-3-(trifluoromethyl)phenyl)-6-methyl-N^5-(3-(6-(methylamino)pyrimidin-4-yl)pyridin-2-yl)isoquinoline-1,5-diamine]	≤ 500	≤ 500	
